# Data taken from patent US20240158446A1, “CYCLIC COMPOUND HAVING SELECTIVE INHIBITORY ACTION ON KRAS OVER HRAS AND NRAS” (CHUGAI SEIYAKU KABUSHIKI KAISHA, priority 2021, published 2024).
# Columns and labels:
# [1] = target: GDP-bound KRAS wild-type protein (Homo sapiens, UniProt P01116); assay: Binding to KRAS by surface plasmon resonance (SPR), Single Cycle Kinetics; conditions: SPR, Single Cycle Kinetics, GDP-bound KRAS wild-type protein; read-out: KRAS KD
# [2] = target: GDP-bound HRAS wild-type protein (Homo sapiens, UniProt P01112); assay: Binding to HRAS by surface plasmon resonance (SPR), Single Cycle Kinetics; conditions: SPR, GDP-bound HRAS wild-type protein vs GDP-bound KRAS wild-type protein
# GDP-bound HRAS wild-type protein, sequence (P01112 whole entry): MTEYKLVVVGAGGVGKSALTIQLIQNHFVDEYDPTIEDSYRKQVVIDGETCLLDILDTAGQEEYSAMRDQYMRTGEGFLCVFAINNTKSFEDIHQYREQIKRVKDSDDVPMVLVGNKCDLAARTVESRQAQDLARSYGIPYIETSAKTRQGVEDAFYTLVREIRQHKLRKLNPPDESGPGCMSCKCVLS
# [3] = target: GDP-bound NRAS wild-type protein (Homo sapiens, UniProt P01111); assay: Binding to NRAS by surface plasmon resonance (SPR), Single Cycle Kinetics; conditions: SPR, GDP-bound NRAS wild-type protein vs GDP-bound KRAS wild-type protein
# GDP-bound NRAS wild-type protein, sequence (P01111 whole entry): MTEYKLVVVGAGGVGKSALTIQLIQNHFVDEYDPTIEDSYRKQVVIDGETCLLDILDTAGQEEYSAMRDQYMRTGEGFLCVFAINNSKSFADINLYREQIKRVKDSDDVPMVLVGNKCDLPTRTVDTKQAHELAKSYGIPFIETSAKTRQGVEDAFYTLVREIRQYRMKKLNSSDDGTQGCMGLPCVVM
# GDP-bound KRAS wild-type protein, sequence (P01116 whole entry): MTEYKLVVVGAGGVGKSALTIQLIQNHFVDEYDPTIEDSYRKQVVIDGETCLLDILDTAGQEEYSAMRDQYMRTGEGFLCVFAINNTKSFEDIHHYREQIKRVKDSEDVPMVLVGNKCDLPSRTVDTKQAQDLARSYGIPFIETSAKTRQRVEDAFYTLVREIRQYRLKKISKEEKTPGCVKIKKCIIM
SMILES,Kd [1] [pM],HRAS/KRAS (ratio of KD value for HRAS to KD value for KRAS) [2],NRAS/KRAS (ratio of KD value for NRAS to KD value for KRAS) [3]
CCO[C@@H]1C[C@H]2C(=O)NC3(CC(C)(C)C3)C(=O)N(C)[C@@H](C3CCCC3)C(=O)N(C)[C@H](C(=O)N(C)C)CC(=O)N(C)[C@@H](CC)C(=O)N[C@@H]([C@@H](C)CC)C(=O)N(C)CC(=O)N(C)[C@H]3C/C=C\CCN(C3=O)[C@@H](Cc3ccc(C(F)F)cc3)C(=O)N(C)CC(=O)N[C@@H](CCc3cc(F)c(C(F)(F)F)c(F)c3)C(=O)N2C1 [PP2049],40,B (a compound having 3 or more and less than 10 is denoted as B),A (a compound having 10 or more and less than 20 is denoted as A)
C=CCN1CC(=O)N(C)[C@H]2C/C=C\CCN(C2=O)[C@@H](Cc2ccc(C)cc2)C(=O)N(C)CC(=O)N[C@@H](CCc2cc(F)c(C(F)(F)F)c(F)c2)C(=O)N2C[C@H](OCC)C[C@H]2C(=O)NC2(CC(C)(C)C2)C(=O)N(C)[C@@H](C2CCCC2)C(=O)N(C)[C@H](C(=O)N(C)C)CC(=O)N(C)[C@@H](CC(C)C)C(=O)N[C@@H]([C@@H](C)CC)C1=O [PP2050],190,A (a compound having 10 or more and less than 20 is denoted as A),A (a compound having 10 or more and less than 20 is denoted as A)
C#CCN1CC(=O)N(C)[C@H]2C/C=C\CCN(C2=O)[C@@H](Cc2ccc(C)cc2)C(=O)N(C)CC(=O)N[C@@H](CCc2cc(F)c(C(F)(F)F)c(F)c2)C(=O)N2C[C@H](OCC)C[C@H]2C(=O)NC2(CC(C)(C)C2)C(=O)N(C)[C@@H](C2CCCC2)C(=O)N(C)[C@H](C(=O)N(C)C)CC(=O)N(C)[C@@H](CC(C)C)C(=O)N[C@@H]([C@@H](C)CC)C1=O [PP2052],160,A (a compound having 10 or more and less than 20 is denoted as A),A (a compound having 10 or more and less than 20 is denoted as A)
C#CC[C@H]1C(=O)N[C@@H]([C@@H](C)CC)C(=O)N(C)CC(=O)N(C)[C@H]2C/C=C\CCN(C2=O)[C@@H](Cc2ccc(C(F)(F)F)cc2)C(=O)N(C)CC(=O)N[C@@H](CCc2ccc(C(F)(F)F)c(OC)c2)C(=O)N2C[C@H](OCC)C[C@H]2C(=O)NC2(CCC2)C(=O)N(C)[C@@H](C2CCCC2)C(=O)N(C)[C@H](C(=O)N(C)CCC)CC(=O)N1C [PP2059],93,A (a compound having 10 or more and less than 20 is denoted as A),A (a compound having 10 or more and less than 20 is denoted as A)
C#CC[C@H]1C(=O)N[C@@H]([C@@H](C)CC)C(=O)N(C)CC(=O)N(C)[C@H]2C/C=C\CCN(C2=O)[C@@H](Cc2ccc(C(F)(F)F)cc2)C(=O)N(C)CC(=O)N[C@@H](CCc2ccc(C(F)(F)F)c(OC)c2)C(=O)N2C[C@@H](C)C[C@H]2C(=O)NC2(CCC2)C(=O)N(C)[C@@H](C2CCCC2)C(=O)N(C)[C@H](C(=O)N(C)CC)CC(=O)N1C [PP2061],75,A (a compound having 10 or more and less than 20 is denoted as A),AA (a compound having 20 or more is denoted as AA)
CCO[C@@H]1C[C@H]2C(=O)NC3(CC(C)(C)C3)C(=O)N(C)[C@@H](C(CC)CC)C(=O)N(C)[C@H](C(=O)N(C)C)CC(=O)N(C)[C@@H](CC)C(=O)N[C@@H]([C@@H](C)CC)C(=O)N(C)CC(=O)N(C)[C@H]3C/C=C\CCN(C3=O)[C@@H](Cc3ccc(C(F)(F)F)cc3)C(=O)N(C)CC(=O)N[C@@H](CCc3cc(F)c(C(F)(F)F)c(F)c3)C(=O)N2C1 [PP2062],190,A (a compound having 10 or more and less than 20 is denoted as A),AA (a compound having 20 or more is denoted as AA)
CCO[C@@H]1C[C@H]2C(=O)NC3(CC(C)(C)C3)C(=O)N(C)[C@@H](C(CC)CC)C(=O)N(C)[C@H](C(=O)N(C)C)CC(=O)N(C)[C@@H](CC)C(=O)N[C@@H]([C@@H](C)CC)C(=O)N(C)CC(=O)N(C)[C@H]3C/C=C\CCN(C3=O)[C@@H](Cc3ccc(C(F)(F)F)cc3)C(=O)N(C)CC(=O)N[C@@H](CCc3ccc(C(F)(F)F)c(OC)c3)C(=O)N2C1 [PP2066],250,B (a compound having 3 or more and less than 10 is denoted as B),A (a compound having 10 or more and less than 20 is denoted as A)
CCC[C@H]1C(=O)N[C@@H]([C@@H](C)CC)C(=O)N(C)CC(=O)N(C)[C@H]2C/C=C\CCN(C2=O)[C@@H](Cc2ccc(C)cc2)C(=O)N(C)CC(=O)N[C@@H](CCc2ccc(C(F)(F)F)c(OC)c2)C(=O)N2C[C@H](OCC)C[C@H]2C(=O)NC2(CC(C)(C)C2)C(=O)N(C)[C@@H](C(CC)CC)C(=O)N(C)[C@H](C(=O)N(C)C)CC(=O)N1C [PP2068],360,B (a compound having 3 or more and less than 10 is denoted as B),A (a compound having 10 or more and less than 20 is denoted as A)
CC[C@H](C)[C@@H]1NC(=O)[C@H](C2CC2)N(C)C(=O)C[C@@H](C(=O)N(C)CC)N(C)C(=O)[C@H](C2CCCC2)N(C)C(=O)C2(CCC2)NC(=O)[C@@H]2C[C@H](C)CN2C(=O)[C@H](CCc2ccc(C(F)(F)F)c(OC)c2)NC(=O)CN(C)C(=O)[C@H](Cc2ccc(C(F)(F)F)cc2)N2CC/C=C\C[C@@H](C2=O)N(C)C(=O)CN(C)C1=O [PP2069],82,A (a compound having 10 or more and less than 20 is denoted as A),AA (a compound having 20 or more is denoted as AA)
CCCN(C)C(=O)[C@@H]1CC(=O)N(C)[C@@H](C2CC2)C(=O)N[C@@H]([C@@H](C)CC)C(=O)N(C)CC(=O)N(C)[C@H]2C/C=C\CCN(C2=O)[C@@H](Cc2ccc(C(F)(F)F)cc2)C(=O)N(C)CC(=O)N[C@@H](CCc2ccc(C(F)(F)F)c(OC)c2)C(=O)N2C[C@@H](C)C[C@H]2C(=O)NC2(CCC2)C(=O)N(C)[C@@H](C2CCCC2)C(=O)N1C [PP2070],110,A (a compound having 10 or more and less than 20 is denoted as A),A (a compound having 10 or more and less than 20 is denoted as A)
CC[C@H](C)[C@@H]1NC(=O)[C@H](C2CCC2)N(C)C(=O)C[C@@H](C(=O)N(C)CC)N(C)C(=O)[C@H](C2CCCC2)N(C)C(=O)C2(CCC2)NC(=O)[C@@H]2C[C@H](C)CN2C(=O)[C@H](CCc2ccc(C(F)(F)F)c(OC)c2)NC(=O)CN(C)C(=O)[C@H](Cc2ccc(C(F)(F)F)cc2)N2CC/C=C\C[C@@H](C2=O)N(C)C(=O)CN(C)C1=O [PP2071],100,A (a compound having 10 or more and less than 20 is denoted as A),A (a compound having 10 or more and less than 20 is denoted as A)

# More lines, main results first:
Kd [1] [pM],SMILES,HRAS/KRAS (ratio of KD value for HRAS to KD value for KRAS) [2],NRAS/KRAS (ratio of KD value for NRAS to KD value for KRAS) [3]
120,C#CC[C@H]1C(=O)N[C@@H]([C@@H](C)CC)C(=O)N(C)CC(=O)N(C)[C@H]2C/C=C\CCN(C2=O)[C@@H](Cc2ccc(C(F)(F)F)cc2)C(=O)N(C)CC(=O)N[C@@H](CCc2ccc(C(F)(F)F)c(OC)c2)C(=O)N2C[C@H](OCC)C[C@H]2C(=O)NC2(CC(C)(C)C2)C(=O)N(C)[C@@H](C2CCCC2)C(=O)N(C)[C@H](C(=O)N(C)CC)CC(=O)N1C [PP2051],A (a compound having 10 or more and less than 20 is denoted as A),A (a compound having 10 or more and less than 20 is denoted as A)
130,C#CC[C@H]1C(=O)N[C@@H]([C@@H](C)CC)C(=O)N(C)CC(=O)N(C)[C@H]2C/C=C\CCN(C2=O)[C@@H](Cc2ccc(C(F)(F)F)cc2)C(=O)N(C)CC(=O)N[C@@H](CCc2ccc(C(F)(F)F)c(OC)c2)C(=O)N2C[C@H](OCC)C[C@H]2C(=O)NC2(CC(C)(C)C2)C(=O)N(C)[C@@H](C2CCCC2)C(=O)N(C)[C@H](C(=O)N(C)CCC)CC(=O)N1C [PP2053],A (a compound having 10 or more and less than 20 is denoted as A),A (a compound having 10 or more and less than 20 is denoted as A)
180,C#CC[C@H]1C(=O)N[C@@H]([C@@H](C)CC)C(=O)N(C)CC(=O)N(C)[C@H]2C/C=C\CCN(C2=O)[C@@H](Cc2ccc(C(F)(F)F)cc2)C(=O)N(C)CC(=O)N[C@@H](CCc2ccc(C(F)(F)F)c(OC)c2)C(=O)N2C[C@@H](C)C[C@H]2C(=O)NC2(CC(C)(C)C2)C(=O)N(C)[C@@H](C2CCCC2)C(=O)N(C)[C@H](C(=O)N(C)CC)CC(=O)N1C [PP2055],B (a compound having 3 or more and less than 10 is denoted as B),A (a compound having 10 or more and less than 20 is denoted as A)
220,CC[C@H](C)[C@@H]1NC(=O)[C@H](C(C)C)N(C)C(=O)C[C@@H](C(=O)N(C)CC)N(C)C(=O)[C@H](C2CCCC2)N(C)C(=O)C2(CCC2)NC(=O)[C@@H]2C[C@H](C)CN2C(=O)[C@H](CCc2ccc(C(F)(F)F)c(OC)c2)NC(=O)CN(C)C(=O)[C@H](Cc2ccc(C(F)(F)F)cc2)N2CC/C=C\C[C@@H](C2=O)N(C)C(=O)CN(C)C1=O [PP2065],B (a compound having 3 or more and less than 10 is denoted as B),A (a compound having 10 or more and less than 20 is denoted as A)
240,CCCN(C)C(=O)[C@@H]1CC(=O)N(C)[C@@H](C(C)C)C(=O)N[C@@H]([C@@H](C)CC)C(=O)N(C)CC(=O)N(C)[C@H]2C/C=C\CCN(C2=O)[C@@H](Cc2ccc(C(F)(F)F)cc2)C(=O)N(C)CC(=O)N[C@@H](CCc2ccc(C(F)(F)F)c(OC)c2)C(=O)N2C[C@@H](C)C[C@H]2C(=O)NC2(CCC2)C(=O)N(C)[C@@H](C2CCCC2)C(=O)N1C [PP2067],A (a compound having 10 or more and less than 20 is denoted as A),AA (a compound having 20 or more is denoted as AA)
